Data on six compounds can be found in patent publication US11730778B2, “Method of increasing the level and production of metabolized phytonutrients in a subject” (ACCESS BUSINESS GROUP INTERNATIONAL LLC, priority 2019, dated 2023).

The subject of this data set is intestinal microbiota (fecal samples) of human subjects. Briefly: in-vitro fermentations of fecal samples (intestinal microbiota-representing microarray) with phytonutrient precursor compounds. Particulars: in-vitro fermentation; for Phytonutrient Producer Status: conversion of the phytonutrient precursor compound, S1: fecal sample of Subject 1 (S1); for Phytonutrient Producer Status: conversion of the phytonutrient precursor compound, S2: fecal sample of Subject 2 (S2); for Phytonutrient Producer Status: conversion of the phytonutrient precursor compound, S3: fecal sample of Subject 3 (S3); for Phytonutrient Producer Status: conversion of the phytonutrient precursor compound, S4: fecal sample of Subject 4 (S4); for Phytonutrient Producer Status: conversion of the phytonutrient precursor compound, S5: fecal sample of Subject 5 (S5); for Phytonutrient Producer Status: conversion of the phytonutrient precursor compound, S6: fecal sample of Subject 6 (S6); for Phytonutrient Producer Status: conversion of the phytonutrient precursor compound, S7: fecal sample of Subject 7 (S7); for Phytonutrient Producer Status: conversion of the phytonutrient precursor compound, S8: fecal sample of Subject 8 (S8); for Phytonutrient Producer Status: conversion of the phytonutrient precursor compound, S9: fecal sample of Subject 9 (S9); for Phytonutrient Producer Status: conversion of the phytonutrient precursor compound, S10: fecal sample of Subject 10 (S10); for Phytonutrient Producer Status: conversion of the phytonutrient precursor compound, S11: fecal sample of Subject 11 (S11). It counts as in vitro ADME. As for the experimental part:
The phytonutrient producer status of 11 human subjects (“Subjects 1-11”, or “S1”-“S11”, respectively) was assessed by determining the microbial metabolism of various phytonutrient precursor compounds. […] The metabolism of the phytonutrient precursor compound in each assay was then determined via monitoring conversion (+), partial conversion (±), or no conversion (−) of the phytonutrient precursor compound over time.

The structures appear in SMILES notation.

With `OC[C@H]1O[C@@H](Oc2cc3c(O)cc(O)cc3[o+]c2-c2ccc(O)c(O)c2)[C@H](O)[C@@H](O)[C@@H]1O` [Cyanidin-3-glucoside], the “Phytonutrient Producer Status: conversion of the phytonutrient precursor compound, S1” value was “±”; the “Phytonutrient Producer Status: conversion of the phytonutrient precursor compound, S2” value (“Phytonutrient Producer Status: conversion … S2” below) is “±”; the “Phytonutrient Producer Status: conversion of the phytonutrient precursor compound, S3” value (“Phytonutrient Producer Status: conversion … S3” below) is listed as “+”; the “Phytonutrient Producer Status: conversion of the phytonutrient precursor compound, S4” value (“Phytonutrient Producer Status: conversion … S4” below) is “±”. Besides, the “Phytonutrient Producer Status: conversion of the phytonutrient precursor compound, S5” value (“Phytonutrient Producer Status: conversion … S5” below) is given as “±”; the “Phytonutrient Producer Status: conversion of the phytonutrient precursor compound, S6” value (“Phytonutrient Producer Status: conversion … S6” below) was “+”; the “Phytonutrient Producer Status: conversion of the phytonutrient precursor compound, S7” value (“Phytonutrient Producer Status: conversion … S7” below) was “+”; the “Phytonutrient Producer Status: conversion of the phytonutrient precursor compound, S8” value (“Phytonutrient Producer Status: conversion … S8” below) is recorded as “±”. Further, the “Phytonutrient Producer Status: conversion of the phytonutrient precursor compound, S9” value (“Phytonutrient Producer Status: conversion … S9” below) is on record as “+”; the “Phytonutrient Producer Status: conversion of the phytonutrient precursor compound, S10” value (“Phytonutrient Producer Status: conversion … S10” below) is “+”; the “Phytonutrient Producer Status: conversion of the phytonutrient precursor compound, S11” value (“Phytonutrient Producer Status: conversion … S11” for short) was “+”.

Regarding `O=c1oc2c(O)c(O)cc3c(=O)oc4c(O)c(O)cc1c4c23` [Ellagic acid], the “Phytonutrient Producer Status: conversion of the phytonutrient precursor compound, S1” value is “±”; the “Phytonutrient Producer Status: conversion … S2” value is on record as “±”; the “Phytonutrient Producer Status: conversion … S3” value is given as “±”; the “Phytonutrient Producer Status: conversion … S4” value is on record as “−”. The “Phytonutrient Producer Status: conversion … S5” value was “−”; the “Phytonutrient Producer Status: conversion … S6” value is given as “−”; the “Phytonutrient Producer Status: conversion … S7” value was “−”; the “Phytonutrient Producer Status: conversion … S8” value is listed as “±”. The “Phytonutrient Producer Status: conversion … S9” value was “−”; the “Phytonutrient Producer Status: conversion … S10” value is on record as “±”; the “Phytonutrient Producer Status: conversion … S11” value is on record as “−”.

`Oc1cc(O)c2c(c1)O[C@H](c1cc(O)c(O)c(O)c1)[C@H](O)C2` [Epigallocatechol]: the “Phytonutrient Producer Status: conversion of the phytonutrient precursor compound, S1” value is on record as “+”; the “Phytonutrient Producer Status: conversion … S2” value is recorded as “+”; the “Phytonutrient Producer Status: conversion … S3” value is on record as “±”; the “Phytonutrient Producer Status: conversion … S4” value was “+”. For the same compound, the “Phytonutrient Producer Status: conversion … S5” value was “+”; the “Phytonutrient Producer Status: conversion … S6” value is reported as “+”; the “Phytonutrient Producer Status: conversion … S7” value was “+”; the “Phytonutrient Producer Status: conversion … S8” value is recorded as “+”. Moreover, the “Phytonutrient Producer Status: conversion … S9” value is “+”; the “Phytonutrient Producer Status: conversion … S10” value was “+”; the “Phytonutrient Producer Status: conversion … S11” value is on record as “+”.

Turning to `COc1ccc([C@@H]2CC(=O)c3c(O)cc(O[C@@H]4O[C@H](CO[C@@H]5O[C@@H](C)[C@H](O)[C@@H](O)[C@H]5O)[C@@H](O)[C@H](O)[C@H]4O)cc3O2)cc1O` [Hesperidin], the “Phytonutrient Producer Status: conversion of the phytonutrient precursor compound, S1” value is on record as “+”; the “Phytonutrient Producer Status: conversion … S2” value is reported as “+”; the “Phytonutrient Producer Status: conversion … S3” value was “+”; the “Phytonutrient Producer Status: conversion … S4” value was “+”. Besides, the “Phytonutrient Producer Status: conversion … S5” value was “±”; the “Phytonutrient Producer Status: conversion … S6” value was “+”; the “Phytonutrient Producer Status: conversion … S7” value is “+”; the “Phytonutrient Producer Status: conversion … S8” value was “+”. The “Phytonutrient Producer Status: conversion … S9” value is on record as “+”; the “Phytonutrient Producer Status: conversion … S10” value is given as “+”; the “Phytonutrient Producer Status: conversion … S11” value is given as “+”.

With `O=c1c(O)c(-c2ccc(O)c(O)c2)oc2cc(O)cc(O)c12` [Quercetin], the “Phytonutrient Producer Status: conversion of the phytonutrient precursor compound, S1” value is reported as “−”; the “Phytonutrient Producer Status: conversion … S2” value is “+”; the “Phytonutrient Producer Status: conversion … S3” value is given as “+”; the “Phytonutrient Producer Status: conversion … S4” value is listed as “+”. For the same compound, the “Phytonutrient Producer Status: conversion … S5” value was “−”; the “Phytonutrient Producer Status: conversion … S6” value is on record as “+”; the “Phytonutrient Producer Status: conversion … S7” value is reported as “+”; the “Phytonutrient Producer Status: conversion … S8” value was “−”. Also, the “Phytonutrient Producer Status: conversion … S9” value is given as “−”; the “Phytonutrient Producer Status: conversion … S10” value is “+”; the “Phytonutrient Producer Status: conversion … S11” value is reported as “−”.

Turning to `COc1cc(C[C@@H](CO[C@@H]2O[C@H](CO)[C@@H](O)[C@H](O)[C@H]2O)[C@H](CO[C@@H]2O[C@H](CO)[C@@H](O)[C@H](O)[C@H]2O)Cc2ccc(O)c(OC)c2)ccc1O` [Secoisolariciresinol diglucoside], the “Phytonutrient Producer Status: conversion of the phytonutrient precursor compound, S1” value is given as “+”; the “Phytonutrient Producer Status: conversion … S2” value was “+”; the “Phytonutrient Producer Status: conversion … S3” value is “±”; the “Phytonutrient Producer Status: conversion … S4” value is listed as “+”. Besides, the “Phytonutrient Producer Status: conversion … S5” value is on record as “+”; the “Phytonutrient Producer Status: conversion … S6” value is reported as “±”; the “Phytonutrient Producer Status: conversion … S7” value was “±”; the “Phytonutrient Producer Status: conversion … S8” value is given as “±”. The “Phytonutrient Producer Status: conversion … S9” value is listed as “+”; the “Phytonutrient Producer Status: conversion … S10” value is reported as “+”; the “Phytonutrient Producer Status: conversion … S11” value is given as “+”.
